Data from patent US20260347843A1, “NERVOUS SYSTEM DELIVERY ENHANCER” (priority 2022, published 2026).

Key:
[1] = ASO concentration in spinal cord and left hippocampus after intrathecal administration; type: in vivo; details: rat, coadministered with Mapt-targeting ASO of Table 2 (76 nmol, 400 μg per rat), 7 days
Description: In this Example, an ASO having the same configuration as the ASO used in Example 3 (the ASO described in Table 2) was used, and a nucleic acid was prepared by the same method as in Example 1.
The intrathecal administration of ASO and the measurement of the ASO concentration were performed by the following methods. A catheter was inserted into the spinal subarachnoid of an 8-week-old Slc:SD rat (male). When the rat was 9 weeks old, ASO and/or TGN-073 in an amount of 76 nmol (400 μg) per rat ([…]) was administered intrathecally. Hereinafter, the rats to which ASO alone was intrathecally administered are referred to as the “ASO single administration group”, and the rats to which ASO and TGN-073 were intrathecally administered together are referred to as the “ASO/TGN-073 coadministration group”. The spinal part and the left hippocampus were extirpated from the rats at 7 days after the intrathecal administration, and the ASO concentration in each tissue was evaluated by the same method as in Example 1.

Malat1 RNA = Malat1 RNA expression level after intraventricular administration (target gene suppression effect); type: in vivo, mouse; details: 7 days
Description: (§1) Seven-week-old female ICR mice anesthetized with 2.5 to 4% isoflurane were fixed to a brain stereotaxic apparatus. Then, skin between the ears was cut open 2 to 3 cm anteroposteriorly, and perforated 1 mm leftward and 0.2 mm posteriorly from the bregma using a 1 mm diameter drill. A Hamilton syringe was filled with the nucleic acid agent. Through the perforated site, a needle was inserted approximately 3 mm deep. The ASO at a dose of 0.95 nmol (5 μg) per mouse was administered into the left lateral ventricle (n=4 to 7/group). The group to which ASO and TGN-073 were coadministered (hereinafter, the group is referred to as the “ASO/TGN-073 coadministration group”) means that ASO mixed with TGN-073 was administered. The group to which only ASO was administered (hereinafter, the group is referred to as the “ASO single administration group”) means that only ASO was administered without being mixed with TGN-073. The dose of TGN-073 in the ASO/TGN-073 coadministration group was 0.25 mg per mouse. After the intraventricular administration, the skin was sutured with a nylon thread. In addition, mice to which only TGN-073 was administered (hereinafter, the mice are referred to as the “TGN-073 administration group”) and mice to which only PBS was administered (hereinafter, the mice are referred to as the “PBS administration group”) were produced as controls.
(§2) A left hippocampus was extirpated from each of the mice at 3 hours or 7 days after the intraventricular administration. Using an IsogenI kit (GeneDesign Inc.), RNA was extracted from the left hippocampus extirpated. A cDNA was synthesized using Transcriptor Universal cDNA Master, DNase (Roche Diagnostics) in accordance with the protocol.
Next, quantitative RT-PCR was performed with TaqMan (Roche Applied Science). Primers used in quantitative RT-PCR were products designed and manufactured by Thermo Fisher Scientific Inc. (formerly known as Life Technologies Corp.) on the basis of the various numbers of genes. Amplification conditions (temperature and time) were as follows: one cycle—95 °C for 15 seconds, 60 °C for 30 seconds, and 72 °C for 1 second—was repeated 40 times. The ratio of the expression amount of Malat1 RNA to the expression amount of Actb mRNA (internal standard gene) was calculated, and a value standardized with respect to the value of the PBS-treated group was determined as a relative Malat1 RNA level.
In this Example, the ASO targeted at Malat1, and used in Example 1 (the ASO described in Table 1) was used. Performed in accordance with Example 1 were: the preparation of a nucleic acid; an in vivo experiment; and the evaluation of the intracerebral ASO concentration (the amount of the nucleic acid delivered to the brain); and the target gene suppression effect. […]

[2] = ASO concentration in mouse nervous tissue after intraventricular administration (quantitative RT-PCR relative to U6 snRNA); type: in vivo
Description: as §1, §2
The intracerebral ASO concentration (the amount of the nucleic acid delivered to the brain) was measured by extracting RNA from the left hippocampus extirpated in the same manner as described above, and performing quantitative RT-PCR using a primer pair for amplifying ASO and TaqMan Small RNA Assay (Roche Applied Science). The intracerebral ASO concentration was obtained by calculating the ASO content relative to U6 snRNA (an internal standard gene). […]

[3] = IgG antibody concentration in left hippocampus after intraventricular administration (Alexa 647 fluorescence); type: in vivo; details: coadministered with IgG antibody (10 μg/mouse), TGN-073 250 μg/mouse, 3 hours
Description: In this Example, an Alexa 647 fluorescence-labeled IgG antibody (Goat anti-Rabbit IgG (H+L) Highly Cross-Adsorbed Secondary Antibody, Alexa Fluor (trademark)647, #A-21245, Invitrogen) alone or in combination with TGN-073 (250 μg/mouse) was administered at a dose of 10 μg/mouse to the left lateral ventricle of an 8-week-old ICR mouse (female). Hereinafter, the mice to which the IgG antibody alone was intraventricularly administered are referred to as the “IgG antibody single administration group”, and the mice to which the IgG antibody and TGN-073 were intraventricularly administered together are referred to as the “IgG/TGN-073 coadministration group”. Brain tissue samples of the left hippocampus were collected from the mice at 3 hours after the intraventricular administration. Using a fluorescence plate reader (M1000Pro, Tecan Group Ltd.), the Alexa 647 fluorescence intensity per brain weight was measured to thereby evaluate the concentration of the IgG antibody.

In the case of `O=S(=O)(Nc1ncccc1OCc1ccccc1)c1ccccc1` [TGN-073, N-(3-benzyloxypyridin-2-yl)-benzene-sulfonamide], the “ASO concentration in the left hippocampus vs ASO single administration” value [1] is reported as “dramatic increase”, the “ASO concentration in the spinal part vs ASO single administration” value [1] is reported as “dramatic increase” and the “Target gene (Malat1) suppression effect in the hippocampus vs ASO single administration” value (Malat1 RNA; coadministered with 2′-O-MOE-modified ASO (1.7 nmol, 12.5 μg)) is reported as “an augmentation of the target gene suppression effect”. The “Target gene (Malat1) suppression effect in the hippocampus vs nucleic acid agent alone” value (Malat1 RNA; coadministered with ASO, HDO or Chol-HDO (0.95 nmol), any of the groups) was “marked enhancement”, the “Suppression effect on the Malat1 gene in the hippocampus vs ASO single administration” value (Malat1 RNA; coadministered with Malat1-targeting ASO (0.95 nmol), TGN-073 0.25 mg per mouse) was “markedly enhanced” and the “Target gene (Malat1) suppression effect in the lumbar cord portion vs ASO single administration” value (Malat1 RNA; coadministered with Malat1-targeting ASO (1.7 nmol, 12.5 μg)) was “marked enhancement”. The “ASO concentration in the central nervous system (hippocampus) vs ASO single administration” value ([2]; Example 7, coadministered with Mapt-targeting ASO of Table 6 (9.4 nmol, 50 μg), TGN-073-mes 0.125 mg/mouse per method, 7 days) was “marked enhancement”, the “ASO concentration in the central nervous system (hippocampus) vs nucleic acid agent alone” value (“ASO concentration … vs nucleic acid agent alone” for short) ([2]; coadministered with ASO (single-stranded, 0.95 nmol), 7 days) was “dramatic increase” and the “ASO concentration … vs nucleic acid agent alone” value ([2]; coadministered with Chol-HDO (0.95 nmol), 7 days) was “dramatic increase”. For the same compound, the “ASO concentration … vs nucleic acid agent alone” value ([2]; coadministered with HDO (0.95 nmol), 7 days) was “dramatic increase”, the “ASO concentration in the hippocampus (amount of nucleic acid delivered to the brain) vs ASO single administration” value ([2]; coadministered with Malat1-targeting ASO (0.95 nmol, 5 μg), TGN-073 0.25 mg per mouse, 3 hours or 7 days) was “dramatic increase” and the “ASO concentration in the lumbar cord portion vs ASO single administration” value ([2]; coadministered with Malat1-targeting ASO (1.7 nmol, 12.5 μg), 7 days) was “dramatic increase”. For the same compound, the “IgG antibody concentration in the central nervous system (left hippocampus) vs IgG antibody single administration” value [3] was “dramatic increase”.
